Assay results published in US10844420B2, “Method for detecting slow-VISA” (priority 2016, dated 2020).

Experiments:
Assay type in all cases: cell-based, Staphylococcus aureus
slow-VISA [1] = assay: ETEST of VCM on BHI medium added with mupirocin, slow-VISA; conditions: BHI medium added with mupirocin at a concentration at which growth was not suppressed
Protocol: The pictures on the left show the results of a mupirocin-free medium after 96 hours, the pictures on the right show the results of a mupirocin-containing medium after 96 hours, and black arrows show the points after 48 hours.
(§1) (2) The bacteria grown in step (a) is adjusted to OD=0.3 using an absorbance measuring instrument (wavelength of 578 nm), and it was set as 1×10^8 cells. Then, the bacteria are spread on a BHI agar medium of Eiken Chemical Co., Ltd. and a mupirocin-containing BHI agar medium, and the ETEST® strips (bioMerieux Japan Ltd.) of VCM and cefoxitin are placed thereon, followed by culture for 48 hours in accordance with the CLSI guideline. After 48 hours, tested bacteria having a MIC of cefoxitin of ≥8 μg/mL and a MIC of VCM of >6 μg/mL are suspected to be slow-VISA.
(§2) Further, it was supposed that the resistance further increased when the stringent response relating to those mutated genes was induced.

slow-VISA [2] = assay: Disk diffusion method of VCM on BHI agar medium with or without mupirocin; conditions: 30 μg/mL vancomycin disks, BHI agar containing 0.032 μg/mL of mupirocin, culture for 48 hours
Protocol: The disk diffusion method using […] vancomycin disks was separately performed on BHI agar media containing 0.032 μg/mL of mupirocin or BHI agar media in the absence of a drug. […] The values shown above the panels indicate the averages and standard deviations of the diameters of inhibitory zones.

[3] = test system: vancomycin-sensitive strain; assay: ETEST of VCM on BHI medium added with mupirocin, vancomycin-sensitive strain; conditions: BHI medium added with mupirocin at a concentration at which growth was not suppressed
Protocol: as §1, §2

slow-VISA [4] = assay: Growth of slow-VISA in liquid medium containing VCM with or without mupirocin
Source text: In the figure, MUP indicates mupirocin.
(§3) From FIG. 1(b), when VISA was used, an increase in the growth rate by the addition of mupirocin was not observed.

VISA = assay: Growth of VISA in liquid medium containing VCM with or without mupirocin; conditions: FIG. 1(b)
Source text: as §3

In the case of `C/C(=C\C(=O)OCCCCCCCCC(=O)O)C[C@@H]1OC[C@H](C[C@@H]2O[C@H]2[C@@H](C)[C@H](C)O)[C@@H](O)[C@H]1O` [mupirocin], the “degree of resistance (ETEST of VCM)” value (slow-VISA [1]) is reported as “increased”, the “colonies around inhibitory zone” value (slow-VISA [2]) is reported as “Small numerous colonies were detected” and the “degree of resistance (ETEST of VCM)” value [3] is reported as “did not increase”. The “difference in OD values” (slow-VISA [4]; 0.032 μg/mL mupirocin and 16 μg/mL VCM versus comparison media, in 24 hours) was ≥ 1, the “growth rate versus culture in mupirocin-free liquid medium or medium with growth-affecting mupirocin concentration and 8 μg/mL of VCM” value (slow-VISA [4]; liquid medium, 0.032 μg/mL mupirocin and 16 μg/mL of VCM) was “larger” and the “increase in the growth rate by the addition of mupirocin” value (VISA) was “not observed”.
